Test results from the supplement of paper PMC10307832.

Columns and labels:
Assay in all cases: relative viability (nuclei count vs DMSO), 5 days (fraction); higher = more cells survive
Sunitinib + Bortezomib = compound: CCN(CC)CCNC(=O)c1c(C)[nH]c(/C=C2\C(=O)Nc3ccc(F)cc32)c1C [Sunitinib] + CC(C)C[C@H](NC(=O)[C@H](Cc1ccccc1)NC(=O)c1cnccn1)B(O)O [Bortezomib] (partner 0.002 µM)
Procedure, shortened: (§1)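 Medians of duplicate plates are given as relative viability. That measure is the nuclei count in treated wells divided by the count in vehicle wells. Counts were taken on 4× images of lung cancer cell lines in 1536-well plates, 5 days after pin-tool dosing the day after seeding with one drug alone or a fixed anchor-drug dose plus five library-drug doses (not always all listed) in √10 steps.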

Sunitinib + Luminespib = compound: CCN(CC)CCNC(=O)c1c(C)[nH]c(/C=C2\C(=O)Nc3ccc(F)cc32)c1C [Sunitinib] + CCNC(=O)c1noc(-c2cc(C(C)C)c(O)cc2O)c1-c1ccc(CN2CCOCC2)cc1 [Luminespib] (partner 0.01 µM)
Procedure, shortened: as §1

Sunitinib + Dasatinib = compound: CCN(CC)CCNC(=O)c1c(C)[nH]c(/C=C2\C(=O)Nc3ccc(F)cc32)c1C [Sunitinib] + Cc1nc(Nc2ncc(C(=O)Nc3c(C)cccc3Cl)s2)cc(N2CCN(CCO)CC2)n1 [Dasatinib] (partner 0.075 µM)
Procedure, shortened: as §1

Sunitinib + Palbociclib = compound: CCN(CC)CCNC(=O)c1c(C)[nH]c(/C=C2\C(=O)Nc3ccc(F)cc32)c1C [Sunitinib] + CC(=O)c1c(C)c2cnc(Nc3ccc(N4CCNCC4)cn3)nc2n(C2CCCC2)c1=O [Palbociclib] (partner 0.5 µM)
Procedure, shortened: as §1

Cell Line	relative viability (Sunitinib + Bortezomib; first compound 0.02 µM)	relative viability (Sunitinib + Bortezomib; first compound 0.06325 µM)	relative viability (Sunitinib + Bortezomib; first compound 0.6325 µM)	relative viability (Sunitinib + Bortezomib; first compound 2 µM)	relative viability (Sunitinib + Luminespib; first compound 0.02 µM)	relative viability (Sunitinib + Luminespib; first compound 0.06325 µM)	relative viability (Sunitinib + Luminespib; first compound 0.2 µM)	relative viability (Sunitinib + Luminespib; first compound 0.6325 µM)	relative viability (Sunitinib + Luminespib; first compound 2 µM)	relative viability (Sunitinib + Dasatinib; first compound 0.02 µM)	relative viability (Sunitinib + Dasatinib; first compound 0.06325 µM)	relative viability (Sunitinib + Dasatinib; first compound 0.2 µM)	relative viability (Sunitinib + Dasatinib; first compound 0.6325 µM)	relative viability (Sunitinib + Dasatinib; first compound 2 µM)	relative viability (Sunitinib + Palbociclib; first compound 0.02 µM)	relative viability (Sunitinib + Palbociclib; first compound 0.06325 µM)	relative viability (Sunitinib + Palbociclib; first compound 0.2 µM)	relative viability (Sunitinib + Palbociclib; first compound 0.6325 µM)	relative viability (Sunitinib + Palbociclib; first compound 2 µM)	relative viability (Sunitinib + Bortezomib; first compound 0.2 µM)
NCI-H2085	1	1.05	1.16	1.07	0.494	0.399	0.489	0.46	0.377	0.271	0.269	0.222	0.256	0.26	0.454	0.5	0.472	0.494	0.494	–
NCI-H661	–	0.77	1	0.87	0.896	0.934	0.949	0.896	0.83	0.923	1.12	1.06	1.07	1.1	0.383	0.444	0.397	0.41	0.47	0.801
201T	1.08	1.09	1.09	1.08	1.05	1.05	1.05	1.08	1.03	0.542	0.56	0.57	0.571	0.528	0.347	0.363	0.336	0.352	0.378	1.13
NCI-H1666	0.867	–	0.839	0.86	0.983	–	1.07	1.07	1.12	0.77	0.948	0.936	0.862	0.942	0.655	0.665	0.677	0.657	0.621	1.01
LU99A	1	1.13	1.35	1.12	0.281	0.254	0.281	0.221	0.299	0.489	0.5	0.612	0.57	0.49	0.338	0.473	0.417	0.433	0.442	1.15
LC-2-ad	0.883	1.04	1.07	0.932	1.09	1.06	1.18	1.04	0.913	0.621	0.599	0.872	0.558	0.403	0.491	0.481	0.593	0.48	0.42	1.05
NCI-H2009	0.973	–	1.17	1.18	1.02	1.05	1.18	1.04	1.04	0.291	0.379	0.288	0.393	0.309	0.183	0.241	0.212	0.231	0.25	1.01
NCI-H520	0.738	0.785	0.783	0.819	0.22	0.231	0.214	0.22	0.228	0.226	0.186	0.18	0.224	0.217	0.237	0.248	0.224	0.27	0.267	0.638
EKVX	1.07	1.04	1.06	1.09	0.811	0.918	0.747	0.942	0.936	0.524	0.638	0.605	0.669	0.654	0.423	0.453	0.508	0.403	0.463	1.18
NCI-H1355	1.2	1.31	1.2	1.27	0.723	0.735	0.718	0.712	0.719	0.715	0.804	0.943	0.756	0.674	0.41	0.393	0.44	0.382	0.393	1.28
SW 1573	0.944	1.11	1.22	1	0.156	0.248	0.247	0.189	0.186	0.464	0.55	0.64	0.526	0.391	0.412	0.316	0.42	0.414	0.397	1.2
NCI-H838	0.831	1.04	0.859	0.744	0.351	0.328	0.301	0.261	0.234	0.324	0.293	0.322	0.291	0.285	0.221	0.23	0.237	0.227	0.2	0.914
NCI-H1915	–	0.994	1.05	1.02	0.5	0.846	0.822	0.869	0.83	0.302	0.346	0.322	0.34	0.296	0.472	0.545	0.573	0.502	0.579	1
NCI-H647	0.936	1.29	1.03	0.923	0.232	0.143	0.131	0.137	0.154	0.164	0.291	0.228	0.183	0.161	0.328	0.398	0.406	0.43	0.316	1.4
PC-3 [JPC-3]	0.836	0.88	0.869	0.732	0.681	0.672	0.755	0.762	0.692	1.04	0.903	1.19	1.05	0.967	0.539	0.561	0.566	0.56	0.602	0.893
NCI-H1993	1.1	1.34	–	1.04	0.741	0.941	0.866	0.654	0.79	0.735	0.545	0.779	0.654	0.645	0.635	0.7	0.687	0.815	0.622	1.36
ChaGo-K-1	1.04	1.03	0.977	1.05	0.587	0.662	0.784	0.709	0.724	0.529	0.753	0.575	0.571	0.598	0.919	0.918	0.945	0.933	0.801	1.03
NCI-H1437	0.567	0.643	0.494	0.551	1.03	1.12	1.23	1.12	1.17	0.489	0.418	0.478	0.39	0.412	0.294	0.347	0.305	0.346	0.329	0.514
NCI-H441	–	1.05	0.281	0.558	0.32	0.275	0.332	0.396	0.339	0.545	0.684	0.714	0.763	0.658	0.223	0.233	0.237	0.232	0.221	0.533
NCI-H322M	1.19	1.35	1.42	1.35	–	0.859	0.966	0.948	0.616	0.257	0.264	0.293	0.265	0.253	0.454	0.48	0.479	0.461	0.497	1.52
LOU-NH91	0.586	0.48	0.426	0.494	0.332	0.403	0.338	0.357	0.349	0.576	0.564	0.615	0.648	0.644	0.592	0.536	0.562	0.473	0.555	0.463
EPLC-272H	0.648	1.17	1.05	0.851	0.364	0.38	0.561	0.582	0.262	0.385	0.418	0.374	0.409	0.333	0.324	0.303	0.316	0.256	0.298	0.915
NCI-H2023	0.921	1.13	1.22	–	0.602	0.671	1.08	0.765	0.611	0.459	0.582	0.628	0.707	0.642	0.361	0.424	0.456	0.437	0.343	1.11
CAL-12T	1.04	1.06	1.21	1.05	0.364	0.41	0.385	0.369	0.203	0.36	0.446	0.442	0.468	0.332	0.416	0.427	0.46	0.493	0.473	1.07
NCI-H1755	0.992	1.02	0.93	–	0.435	0.497	0.499	0.441	0.334	0.41	0.46	0.441	0.424	0.448	0.423	0.46	0.49	0.459	0.468	1.04
NCI-H3122	1.01	1.01	0.985	0.985	0.0868	0.127	0.0866	0.0951	0.0797	0.725	0.985	0.84	0.932	0.853	0.159	0.189	0.213	0.176	0.207	–
NCI-H727	0.89	1.07	1.05	0.817	0.429	0.498	0.456	0.457	0.313	0.343	0.432	0.472	0.404	0.275	0.598	0.697	0.671	0.616	0.667	0.805
